The text below walks through data of patent US20230406885A1, “CYCLIC PEPTIDES FOR TRAPPING INTERLEUKIN-1 BETA” (MERCK SHARP & DOHME LLC, priority 2022, published 2023).

*1 amine or outer side, *2 acyl side, *3 side chain or, on linkers, in order; H or OH if unused. Where a SMILES comes first, the peptide text is derived from it. [ ]: non-standard residue; d: D form. Phe(4-(4-Ac-piperazinyl)) = CC(=O)N1CCN(c2ccc(C[C@H](N)C(=O)O)cc2)CC1; Bip(4'-COOH) = N[C@@H](Cc1ccc(-c2ccc(C(=O)O)cc2)cc1)C(=O)O; 1Nal(3S-Me) = C[C@@H](c1cccc2ccccc12)[C@H](N)C(=O)O; Ala(indolin-1-yl) = N[C@@H](CN1CCc2ccccc21)C(=O)O; Trp(6-Cl) = N[C@@H](Cc1c[nH]c2cc(Cl)ccc12)C(=O)O; Phe(4-COOH) = N[C@@H](Cc1ccc(C(=O)O)cc1)C(=O)O; Trp(6-F) = N[C@@H](Cc1c[nH]c2cc(F)ccc12)C(=O)O; Trp(7-aza) = N[C@@H](Cc1c[nH]c2ncccc12)C(=O)O; X14 = C[N+](C)(C)CC[C@@H](N[*:1])C(=O)[*:2]; h3Pal(5-CN) = N#Cc1cncc(CC[C@H](N)C(=O)O)c1; Pro(4R-NH2) = N[C@H]1CN[C@H](C(=O)O)C1; AEF = NCCOc1ccc(C[C@H](N)C(=O)O)cc1; hTyr = N[C@@H](CCc1ccc(O)cc1)C(=O)O; hCha = N[C@@H](CCC1CCCCC1)C(=O)O; dDab = NCC[C@@H](N)C(=O)O; Orn = NCCC[C@H](N)C(=O)O; dDap = NC[C@@H](N)C(=O)O; dNMeA = CN[C@H](C)C(=O)O; Dab = NCC[C@H](N)C(=O)O; Dap = NC[C@H](N)C(=O)O

The target in the test is T1, Recombinant human IL-1β (Homo sapiens, UniProt P01584).
T1 construct: purchased BioLegend 579404
T1 sequence (P01584 117-269): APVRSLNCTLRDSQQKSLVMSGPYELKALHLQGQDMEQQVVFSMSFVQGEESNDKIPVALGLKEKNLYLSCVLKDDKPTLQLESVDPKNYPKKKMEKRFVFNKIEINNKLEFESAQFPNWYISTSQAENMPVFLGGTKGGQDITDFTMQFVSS
Nature of the test: IL-6 assay in MRC5 cells: inhibition of IL-1β induced IL-6 secretion (AlphaLISA). Format: cell-based. To be noted: inhibition of IL-1β induced IL-6 secretion in MRC5 cells; read-out: MRC5 IC50. The essentials:
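IL-1β at 2×EC80 in seeding medium (EMEM, 0.025% BSA) preincubated 1 h at ambient temperature with compound, then 3000 MRC5 cells/well added and incubated overnight at 37 °C, 5% CO2. IL-6 in conditioned medium quantified by AlphaLISA; IC50 from 4-parameter logistic fit.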
(Bead proximity is the source of the signal in Alpha formats.)
Broadly, the IC50 is the midpoint of a concentration-inhibition curve. As for `CC(=O)N1CCN(c2ccc(C[C@@H]3NC(=O)[C@H](CCC4CCCCC4)NC(=O)[C@@H](C)NC(=O)[C@H](CC(C)C)NC(=O)[C@H](CCN)NC(=O)[C@H](Cc4ccc(-c5ccc(C(=O)O)cc5)cc4)NC(=O)CNC(=O)[C@@H](C)N(C)C(=O)[C@H](CC(=O)O)NC(=O)[C@H]([C@@H](C)c4cccc5ccccc45)NC(=O)[C@@H]4C[C@@H](N)CN4C(=O)CNC(=O)[C@H](Cc4ccc(C(=O)O)cc4)NC(=O)[C@H](Cc4c[nH]c5ccccc45)NC3=O)cc2)CC1` [Example 203] (cyclo([Phe(4-(4-Ac-piperazinyl))]W[Phe(4-COOH)]G[Pro(4R-NH2)][1Nal(3S-Me)]D[dNMeA]G[Bip(4'-COOH)][Dab]L[dA][hCha])), the IC50 was 0.012 nM.

Turning to `CC(=O)NC[C@@H]1NC(=O)[C@H](Cc2ccc(-c3ccc(C(=O)O)cc3)cc2)NC(=O)CNC(=O)[C@@H](C)N(C)C(=O)[C@H](CC(=O)O)NC(=O)[C@H]([C@@H](C)c2cccc3ccccc23)NC(=O)[C@@H]2C[C@@H](N)CN2C(=O)CNC(=O)[C@H](Cc2ccc(C(=O)O)cc2)NC(=O)[C@H](Cc2c[nH]c3ccccc23)NC(=O)[C@H](Cc2ccc(N3CCN(C(C)=O)CC3)cc2)NC(=O)[C@H](CCc2cncc(C#N)c2)NC(=O)[C@@H](C)NC(=O)[C@H](CCCCN)NC1=O` [Example 204] (cyclo([Phe(4-(4-Ac-piperazinyl))]W[Phe(4-COOH)]G[Pro(4R-NH2)][1Nal(3S-Me)]D[dNMeA]G[Bip(4'-COOH)][Dap](Ac)K[dA][h3Pal(5-CN)])), the IC50 was found to be 0.009 nM.

Take `CC(=O)NC[C@@H]1NC(=O)[C@H](Cc2ccc(-c3ccc(C(=O)O)cc3)cc2)NC(=O)CNC(=O)[C@@H](C)N(C)C(=O)[C@H](CC(=O)O)NC(=O)[C@H]([C@@H](C)c2cccc3ccccc23)NC(=O)[C@@H]2C[C@@H](N)CN2C(=O)CNC(=O)[C@H](Cc2ccc(C(=O)O)cc2)NC(=O)[C@H](Cc2c[nH]c3ccccc23)NC(=O)[C@H](Cc2ccc(N3CCN(C(C)=O)CC3)cc2)NC(=O)[C@H](CCc2cncc(C#N)c2)NC(=O)[C@@H](CN)NC(=O)[C@H](CC(C)C)NC1=O` [Example 205] (cyclo([Phe(4-(4-Ac-piperazinyl))]W[Phe(4-COOH)]G[Pro(4R-NH2)][1Nal(3S-Me)]D[dNMeA]G[Bip(4'-COOH)][Dap](Ac)L[dDap][h3Pal(5-CN)])): the IC50 was found to be 0.01 nM.

Take `CC(=O)N1CCN(c2ccc(C[C@@H]3NC(=O)[C@H](CCC4CCCCC4)NC(=O)[C@@H](C)NC(=O)[C@H](CC(C)C)NC(=O)[C@H](CN)NC(=O)[C@H](Cc4ccc(-c5ccc(C(=O)O)cc5)cc4)NC(=O)CNC(=O)[C@@H](C)N(C)C(=O)[C@H](CC(=O)O)NC(=O)[C@H]([C@@H](C)c4cccc5ccccc45)NC(=O)[C@@H]4C[C@@H](N)CN4C(=O)CNC(=O)[C@H](Cc4ccc(C(=O)O)cc4)NC(=O)[C@H](Cc4c[nH]c5ccccc45)NC3=O)cc2)CC1` [Example 206] (cyclo([Phe(4-(4-Ac-piperazinyl))]W[Phe(4-COOH)]G[Pro(4R-NH2)][1Nal(3S-Me)]D[dNMeA]G[Bip(4'-COOH)][Dap]L[dA][hCha])): the IC50 is 0.015 nM.

As to `CC(=O)N1CCN(c2ccc(C[C@@H]3NC(=O)[C@H](CCC4CCCCC4)NC(=O)[C@@H](C)NC(=O)[C@H](CC(C)C)NC(=O)[C@H](CCCCN)NC(=O)[C@H](Cc4ccc(-c5ccc(C(=O)O)cc5)cc4)NC(=O)CNC(=O)[C@@H](C)N(C)C(=O)[C@H](CC(=O)O)NC(=O)[C@H]([C@@H](C)c4cccc5ccccc45)NC(=O)[C@@H]4C[C@@H](N)CN4C(=O)CNC(=O)[C@H](Cc4ccc(C(=O)O)cc4)NC(=O)[C@H](Cc4c[nH]c5ccccc45)NC3=O)cc2)CC1` [Example 207] (cyclo([Phe(4-(4-Ac-piperazinyl))]W[Phe(4-COOH)]G[Pro(4R-NH2)][1Nal(3S-Me)]D[dNMeA]G[Bip(4'-COOH)]KL[dA][hCha])), the IC50 stood at 0.011 nM.

With `CC(=O)NCCCC[C@@H]1NC(=O)[C@H](Cc2ccc(-c3ccc(C(=O)O)cc3)cc2)NC(=O)CNC(=O)[C@@H](C)N(C)C(=O)[C@H](CC(=O)O)NC(=O)[C@H]([C@@H](C)c2cccc3ccccc23)NC(=O)[C@@H]2C[C@@H](N)CN2C(=O)CNC(=O)[C@H](Cc2ccc(C(=O)O)cc2)NC(=O)[C@H](Cc2c[nH]c3ccccc23)NC(=O)[C@H](Cc2ccc(N3CCN(C(C)=O)CC3)cc2)NC(=O)[C@H](CCc2cncc(C#N)c2)NC(=O)[C@@H](C)NC(=O)[C@H](CC(C)C)NC1=O` [Example 208] (cyclo([Phe(4-(4-Ac-piperazinyl))]W[Phe(4-COOH)]G[Pro(4R-NH2)][1Nal(3S-Me)]D[dNMeA]G[Bip(4'-COOH)]K(Ac)L[dA][h3Pal(5-CN)])), the IC50 was 0.018 nM.

Regarding `CC(=O)N1CCN(c2ccc(C[C@@H]3NC(=O)[C@H](CCC4CCCCC4)NC(=O)[C@@H](C)NC(=O)[C@H](CC(C)C)NC(=O)[C@H](CCCN)NC(=O)[C@H](Cc4ccc(-c5ccc(C(=O)O)cc5)cc4)NC(=O)CNC(=O)[C@@H](C)N(C)C(=O)[C@H](CC(=O)O)NC(=O)[C@H]([C@@H](C)c4cccc5ccccc45)NC(=O)[C@@H]4C[C@@H](N)CN4C(=O)CNC(=O)[C@H](Cc4ccc(C(=O)O)cc4)NC(=O)[C@H](Cc4c[nH]c5ccccc45)NC3=O)cc2)CC1` [Example 209] (cyclo([Phe(4-(4-Ac-piperazinyl))]W[Phe(4-COOH)]G[Pro(4R-NH2)][1Nal(3S-Me)]D[dNMeA]G[Bip(4'-COOH)][Orn]L[dA][hCha])), the concentration for half-maximal inhibition (IC50) is 0.009 nM.

Consider `CC(=O)NCCOc1ccc(C[C@@H]2NC(=O)[C@H](CCC3CCCCC3)NC(=O)[C@@H](CCN)NC(=O)[C@H](CO)NC(=O)[C@H](Cc3c[nH]c4ncccc34)NC(=O)[C@H](Cc3ccc(-c4ccc(C(=O)O)cc4)cc3)NC(=O)CNC(=O)[C@@H](C)N(C)C(=O)[C@H](CC(=O)O)NC(=O)[C@H]([C@@H](C)c3cccc4ccccc34)NC(=O)[C@@H]3C[C@@H](N)CN3C(=O)CNC(=O)[C@H](Cc3ccc(C(=O)O)cc3)NC(=O)[C@H](Cc3c[nH]c4cc(Cl)ccc34)NC2=O)cc1` [Example 210] (cyclo([AEF](Ac)[Trp(6-Cl)][Phe(4-COOH)]G[Pro(4R-NH2)][1Nal(3S-Me)]D[dNMeA]G[Bip(4'-COOH)][Trp(7-aza)]S[dDab][hCha])), for which the IC50 came out at 0.02 nM.

Regarding `CC(=O)NCCOc1ccc(C[C@@H]2NC(=O)[C@H](CCc3ccc(O)cc3)NC(=O)[C@@H](CCN)NC(=O)CNC(=O)[C@H](CN3CCc4ccccc43)NC(=O)[C@H](Cc3ccc(-c4ccc(C(=O)O)cc4)cc3)NC(=O)CNC(=O)[C@@H](C)N(C)C(=O)[C@H](CC(=O)O)NC(=O)[C@H]([C@@H](C)c3cccc4ccccc34)NC(=O)[C@@H]3C[C@@H](N)CN3C(=O)CNC(=O)[C@H](Cc3ccc(C(=O)O)cc3)NC(=O)[C@H](Cc3c[nH]c4cc(F)ccc34)NC2=O)cc1` [Example 211] (cyclo([AEF](Ac)[Trp(6-F)][Phe(4-COOH)]G[Pro(4R-NH2)][1Nal(3S-Me)]D[dNMeA]G[Bip(4'-COOH)][Ala(indolin-1-yl)]G[dDab][hTyr])), the IC50 is 0.027 nM.

For the compound `CC(=O)NCCOc1ccc(C[C@@H]2NC(=O)[C@H](CCC3CCCCC3)NC(=O)[C@@H](CCN)NC(=O)[C@H](CO)NC(=O)[C@H](Cc3c[nH]c4ncccc34)NC(=O)[C@H](Cc3ccc(-c4ccc(C(=O)O)cc4)cc3)NC(=O)CNC(=O)[C@@H](C)N(C)C(=O)[C@H](CC(=O)O)NC(=O)[C@H]([C@@H](C)c3cccc4ccccc34)NC(=O)[C@@H]3C[C@@H](N)CN3C(=O)CNC(=O)[C@H](Cc3ccc(C(=O)O)cc3)NC(=O)[C@H](Cc3c[nH]c4cc(F)ccc34)NC2=O)cc1` [Example 212] (cyclo([AEF](Ac)[Trp(6-F)][Phe(4-COOH)]G[Pro(4R-NH2)][1Nal(3S-Me)]D[dNMeA]G[Bip(4'-COOH)][Trp(7-aza)]S[dDab][hCha])), the IC50 came to 0.025 nM.

As to `CC(=O)NCCOc1ccc(C[C@@H]2NC(=O)[C@H](CCC3CCCCC3)NC(=O)[C@@H](CC[N+](C)(C)C)NC(=O)[C@H](CO)NC(=O)[C@H](Cc3c[nH]c4ncccc34)NC(=O)[C@H](Cc3ccc(-c4ccc(C(=O)O)cc4)cc3)NC(=O)CNC(=O)[C@@H](C)N(C)C(=O)[C@H](CC(=O)O)NC(=O)[C@H]([C@@H](C)c3cccc4ccccc34)NC(=O)[C@@H]3C[C@@H](N)CN3C(=O)CNC(=O)[C@H](Cc3ccc(C(=O)O)cc3)NC(=O)[C@H](Cc3c[nH]c4cc(F)ccc34)NC2=O)cc1` [Example 213] (cyclo([AEF](Ac)[Trp(6-F)][Phe(4-COOH)]G[Pro(4R-NH2)][1Nal(3S-Me)]D[dNMeA]G[Bip(4'-COOH)][Trp(7-aza)]S[X14][hCha])), the IC50 came out at 0.018 nM.

For the compound `CC(=O)NCCOc1ccc(C[C@@H]2NC(=O)[C@H](CCC3CCCCC3)NC(=O)[C@@H](CCN)NC(=O)CNC(=O)[C@H](Cc3c[nH]c4ncccc34)NC(=O)[C@H](Cc3ccc(-c4ccc(C(=O)O)cc4)cc3)NC(=O)CNC(=O)[C@@H](C)N(C)C(=O)[C@H](CC(=O)O)NC(=O)[C@H]([C@@H](C)c3cccc4ccccc34)NC(=O)[C@@H]3C[C@@H](N)CN3C(=O)CNC(=O)[C@H](Cc3ccc(C(=O)O)cc3)NC(=O)[C@H](Cc3c[nH]c4ccccc34)NC2=O)cc1` [Example 214] (cyclo([AEF](Ac)W[Phe(4-COOH)]G[Pro(4R-NH2)][1Nal(3S-Me)]D[dNMeA]G[Bip(4'-COOH)][Trp(7-aza)]G[dDab][hCha])), the IC50 was found to be 0.02 nM.

Consider `CC(=O)NCCOc1ccc(C[C@@H]2NC(=O)[C@H](CCc3ccc(O)cc3)NC(=O)[C@@H](CCN)NC(=O)CNC(=O)[C@H](Cc3c[nH]c4ncccc34)NC(=O)[C@H](Cc3ccc(-c4ccc(C(=O)O)cc4)cc3)NC(=O)CNC(=O)[C@@H](C)N(C)C(=O)[C@H](CC(=O)O)NC(=O)[C@H]([C@@H](C)c3cccc4ccccc34)NC(=O)[C@@H]3C[C@@H](N)CN3C(=O)CNC(=O)[C@H](Cc3ccc(C(=O)O)cc3)NC(=O)[C@H](Cc3c[nH]c4ccccc34)NC2=O)cc1` [Example 215] (cyclo([AEF](Ac)W[Phe(4-COOH)]G[Pro(4R-NH2)][1Nal(3S-Me)]D[dNMeA]G[Bip(4'-COOH)][Trp(7-aza)]G[dDab][hTyr])), for which the IC50 turned out to be 0.024 nM.
